Results taken from ChEMBL document CHEMBL3872282, “Dithiocarbamates effectively inhibit the β-carbonic anhydrase from the dandruff-producing fungus Malassezia globosa” (Bioorg Med Chem, 2017).

Assay: Inhibition of Malassezia globosa beta-carbonic anhydrase preincubated for 15 mins prior to testing by phenol red-based stopped-flow CO2 hydration assay

SMILES | Ki
OCCCCCNC(=S)S | 383 nM
S=C(S)N[C@H]1CN2CCC1CC2 | 490 nM
S=C(S)N[C@@H]1CN2CCC1CC2 | 724 nM
O=C(O)[C@@H]1CCCN(C(=S)S)C1 | 577 nM
O=C(O)[C@H]1CCCN(C(=S)S)C1 | 929 nM
O=C(CN1CCN(C(=S)S)CC1)NC1CCCCC1 | 801 nM
NS(=O)(=O)c1ccc(CCNC(=S)S)cc1 | 914 nM
OCCCNC(=S)S | 3190 nM
S=C(S)N1CCCCC1 | 773 nM
S=C(S)NC1CN2CCC1CC2 (racemic) | 643 nM
CC(=O)Nc1nnc(S(N)(=O)=O)s1 [ACETAZOLAMIDE] | 74000 nM

The remaining molecules from weak to strong by Ki, led by results:

Ki | SMILES
6240 nM | OCCCCNC(=S)S
4740 nM | O=C(O)C1COCCN1C(=S)S (configuration not stated)
4620 nM | S=C(S)NCCc1ccccc1
2980 nM | CN(C)CCNC(=S)S
2400 nM | O=C(O)C1CCCCN1C(=S)S (configuration not stated)
885 nM | CC(=O)NC1CCCN(C(=S)S)C1 (configuration not stated)
718 nM | O=C(O)C1CCCN(C(=S)S)C1 (configuration not stated)
678 nM | OC1CCCN(C(=S)S)C1 (configuration not stated)
660 nM | CC1COCCN1C(=S)S (configuration not stated)
644 nM | CC(C)(C)OC(=O)NC1CCCN(C(=S)S)C1 (configuration not stated)
556 nM | O=C(O)C1CCN(C(=S)S)CC1
